# Values joined by “and” are separate entries in the source; they are usually repeats but may differ in a detail not shown here. Equal entries are not always repeated.
# Tests used:
# [1] = system: glycerol release; assay: Glycerol release in eWAT of db/db mice (isoproterenol); type: in vivo; parameters: Glycerol release in eWAT (Figure 4m): unit not given here; settings: for Release of glycerol in eWAT: db/db mice, isoproterenol stimulation; for Glycerol release in eWAT (Figure 4m): individual samples 1-6
# Protocol: The epididymal adipose tissue was dissected, the fresh adipose tissue was weighed and rapidly rinsed with PBS. The adipose tissue was cut and incubated with isoproterenol (10 μM) for 2 h, and homogenized in a cold cleavage buffer to prepare the adipose tissue homogenate. Then the homogenate was centrifuged at 12,000 × g at 4 °C for 15 min, and the supernatant was collected. […] Then the cells were lysed in a petri dish, scraped off, and centrifuged at 12,000 × g at 4 °C for 15 min before the supernatant was collected. […] And concentrations were further standardized according to protein concentration.
# [2] = system: db/db mice; assay: Serum ASAT, ALAT, BUN and Cr (toxicity) in db/db mice; type: in vivo
# [3] = system: TNF-α and IL-6; assay: TNF-α and IL-6 in supernatant of TNF-α induced 3T3-L1 adipocytes (ELISA); type: cell-based, Murine; parameters: levels of TNF-α / levels of IL-6: unit not given here; settings: for Levels of TNF-α and IL-6 in the supernatant: 3T3-L1 adipocytes treated with TNF-α; for levels of TNF-α: Figure 7e
# Protocol: We next examined the role of BJ on TNF-α induced inflammation of differentiated 3T3-L1 adipocytes.
# The serum was collected by centrifugation at 3000 × g at 4 °C for 15 min and stored at −80 °C until analysis. TG, TC, LDL-C, HDL-C, and FFA were routinely tested on a Chemray 240 automatic biochemical analyzer (Chemray 240, Shenzhen, China). Serum levels of mouse adiponectin, interleukin6 (IL-6), tumor necrosis factor-α (TNF-α) were measured using commercial enzyme-linked immunosorbent assay (ELISA) kits (Nanjing Jiancheng Bioengineering Institute, Nanjing, China) and according to the manufacturer’s instructions. The levels of IL-6, TNF-α in 3T3-L1 adipocyte culture supernatant were also detected by ELISA.
# [4] = system: cAMP; assay: cAMP levels in eWAT of db/db mice (isoproterenol); type: in vivo; parameters: cAMP levels in eWAT (Figure 4l): unit not given here; settings: for cAMP levels in eWAT: db/db mice, isoproterenol stimulation; for cAMP levels in eWAT (Figure 4l): individual samples 1-6
# Protocol: The epididymal adipose tissue was dissected, the fresh adipose tissue was weighed and rapidly rinsed with PBS. The adipose tissue was cut and incubated with isoproterenol (10 μM) for 2 h, and homogenized in a cold cleavage buffer to prepare the adipose tissue homogenate. Then the homogenate was centrifuged at 12,000 × g at 4 °C for 15 min, and the supernatant was collected. For 3T3-L1 adipocytes, the adipocytes were treated with or without 50 ng/ml TNF-α or 3 μg IKKε plasmid or 4 μM siIKKε for 24 h and then treated with or without 10 μM ISO or 10 μM BJ for 24 h. Then the cells were lysed in a petri dish, scraped off, and centrifuged at 12,000 × g at 4 °C for 15 min before the supernatant was collected.
# Glycerol or cAMP content in adipose tissue and 3T3-L1 adipocytes was determined by a glycerol assay kit (Nanjing Jiancheng Bioengineering Institute, Nanjing, China) or a mouse cAMP assay kit (Nanjing Jiancheng Bioengineering Institute, Nanjing, China). And concentrations were further standardized according to protein concentration.
# [5] = Solubility in water and octanol and log P at 25°C; settings: for solubility: 25 °C
# Source text: beyond changes in oral bioavailability and solubility. This is particularly relevant when […]
# L og P is the logarithmic value of the oil-water partition coefficient P, which refers to the partition equilibrium of undissociated molecules in the oil and water phases. The log P value is closely related to the water solubility, membrane permeability, in vivo ADME process, and affinity of the compound to the receptor and plays a vital role in the permeation of compounds through biological membranes. The log P 0-5 range is optimal for oral drug penetration by passive diffusion, with poor water solubility for high log P compounds and poor lipid […]
# experiments to exert drug activity in cells.
# [6] = system: F4/80-positive macrophages; assay: Immunohistochemical staining of eWAT for F4/80; type: in vivo, mice; settings: for Quantification of immunohistochemical staining: Figure 5k, individual values; for Proportion of F4/80-positive macrophages around adipocytes: db/db mice, epididymal fat pads
# Protocol: The adipose tissue was fixed overnight in 4% paraformaldehyde, then embedded in paraffin and cut into 5 µm thick slices. Tissue sections were stained with hematoxylin and eosin (H&E). For immunohistochemistry, sections were incubated with primary antibodies against F4/80 (1:100 dilution) diluted in the blocking solution at 4 °C overnight. The tissue sections were then incubated with the horseradish peroxidase (HRP)-conjugated secondary antibody at room temperature for 2 h. Finally, the sections were developed with diaminobenzidine (DAB) and counterstained with hematoxylin. Images were obtained under a microscope. To quantify the F4/80-positive macrophages, two random fields per sample were analyzed by Image J software. The IHC profiler plugin of ImageJ was used to calculate the F4/80 positive area.
# [7] = system: p-TBK1, p-AMPKα, UCP1; assay: Western blotting of TNF-α induced 3T3-L1 adipocytes; type: cell-based, Murine; parameters: p-TBK1 / p-AMPKα (western blotting, Figure 7j) / UCP1 (western blotting, Figure 7k): unit not given here; settings: for p-TBK1: Figure 7i, replicates; for UCP1 (western blotting, Figure 7k) / p-AMPKα (western blotting, Figure 7j): 3T3-L1 adipocytes, replicates 1-3
# Protocol: The adipose tissue or 3T3-L1 adipocytes were homogenized by ultrasound in an ice‐cold RIPA lysis buffer containing 1% PMSF and centrifuged at 12,000 × g at 4°C for 15 min to collect the supernatant. The BCA protein assay kit (Beyotime, Shanghai, China) was used to detect the total protein concentration. Proteins (20-30 μg) of the sample were separated by 10% SDS-PAGE gel and transferred onto polyvinylidene difluoride (PVDF) membranes. Then the PVDF membranes were blocked in 5% skim milk powder in TBS containing 1% Tween-20 (TBST) for 2 h at room temperature and washed with TBST for 3 times. The membranes were incubated with the appropriate primary antibody, IKKε (1:1000 dilution), TBK1 (1:1000 dilution), p-TBK1 Ser172 (1:1000 dilution), p-AMPKα Thr172 (1:1000 dilution), UCP1 (1:1000 dilution), and GAPDH (1:1000 dilution) in the blocking buffer solution at 4 °C overnight. After washing, the membranes were incubated with horseradish peroxidase-conjugated secondary antibodies (in 5% skim milk powder) for 1 h at room temperature. Finally, the membranes were treated with enhanced chemiluminescence agents (Tanon, Shanghai, China) and the signals were monitored using the Tanon 5200 multi chemiluminescent imaging system (Tanon, Shanghai, China).
# [8] = 150mg/kg, db/db mice, individual animals
smiles,measurement,setting,value
"COc1ccc2cc3[n+](cc2c1OC)CCc1cc2c(cc1-3)OCO2 [BBR, Berberine chloride dihydrate]",Release of glycerol in eWAT,[1],promoted the release of glycerol
same,Glycerol release in eWAT (Figure 4m),[1]; db/db+ISO+BBR 150mg/kg,626.099 and 631.162 and 626.943 and 630.318 and 632.849
same,ALT,[2]; [8],86 U/L and 97 U/L and 103 U/L and 92 U/L and 85 U/L
same,AST,[2]; [8],125.4 U/L and 140.1 U/L and 155.9 U/L and 114.8 U/L and 154.6 U/L and 172.8 U/L
same,BUN,[2]; [8],8.17 mmol/L and 9.82 mmol/L and 8.93 mmol/L and 9.15 mmol/L and 9.31 mmol/L and 8.1 mmol/L
same,Cr,[2]; [8],17.7 µmol/L and 16.3 µmol/L and 16.4 µmol/L and 17.9 µmol/L and 17.6 µmol/L
same,"Fasting serum ASAT, ALAT, BUN, and Cr levels","[2]; db/db mice, 5 weeks of treatment, vs vehicle control","reduced fasting serum ASAT, ALAT, BUN, and Cr levels"
same,Levels of TNF-α and IL-6 in the supernatant,[3],significantly reduced the levels of TNF-α and IL-6
same,levels of TNF-α,"[3]; TNF-α(50ng/ml)+10μM BBR, replicates",111.895 and 109.61 and 99.3949 and 99.3623 and 111.275 and 110.361
same,levels of IL-6,"[3]; Figure 7f, TNF-α(50ng/ml)+10μM BBR, replicates",17.4575 and 16.5244 and 17.8031 and 16.7594 and 17.9828 and 16.9875
same,cAMP levels in eWAT,[4],increased the cAMP levels
same,cAMP levels in eWAT (Figure 4l),[4]; db/db+ISO+BBR 150mg/kg,0.3703 and 0.3189 and 0.32 and 0.3561 and 0.3523 and 0.3716
same,solubility,"[5]; octanol, organic solvent or mixture",14.3 ± 0.41 µM
same,logP,[5]; octanol/water,-0.041
same,solubility,[5]; water,15.8 ± 0.81 µM
same,Quantification of immunohistochemical staining,[6]; BBR 150mg/kg,0.8707 and 0.7836 and 0.9995 and 1.2402 and 1.136 and 0.9532
same,Proportion of F4/80-positive macrophages around adipocytes,[6],lower than that of the vehicle-treated db/db mice
same,p-TBK1,[7]; Tnfa + 10um BBR,0.5119 and 0.483 and 0.454
same,"UCP1 (western blotting, Figure 7k)",[7]; Tnfa + 10um,0.8587 and 1.148 and 0.9274
same,"p-AMPKα (western blotting, Figure 7j)",[7]; Tnfa + 10um,0.5058 and 0.5536 and 0.7822
"CC(C)Cc1ccc(C(C)C(=O)[O-])cc1.COc1ccc2cc3[n+](cc2c1OC)CCc1cc2c(cc1-3)OCO2.O.O.O.O [BJ, berberine-ibuprofen]",Release of glycerol in eWAT,[1],promoted the release of glycerol
same,Glycerol release in eWAT (Figure 4m),[1]; db/db+ISO+BJ 75mg/kg,372.977 and 400.82 and 389.008 and 382.258 and 389.852 and 395.758
same,AST,[2]; [8],123.8 U/L
same,"Fasting serum ASAT, ALAT, BUN, and Cr levels","[2]; mouse, in vivo","reduced fasting serum ASAT, ALAT, BUN, and Cr levels"
same,Levels of TNF-α and IL-6 in the supernatant,[3],significantly reduced the levels of TNF-α and IL-6
same,levels of TNF-α,"[3]; TNF-α(50ng/ml)+10μM BJ, replicates",96.425 and 110.916 and 111.046 and 97.6978 and 106.64 and 114.538
same,cAMP levels in eWAT,[4],increased the cAMP levels
same,cAMP levels in eWAT (Figure 4l),[4]; db/db+ISO+BJ 75mg/kg,0.344 (2×) and 0.3396 and 0.3778 and 0.3937 and 0.3516
same,cAMP levels in eWAT (Figure 4l),[4]; db/db+ISO+BJ 150mg/kg,0.3909 and 0.4246 and 0.4135 (2×) and 0.4162 and 0.4061
same,log P,[5],1.564
same,Quantification of immunohistochemical staining,[6]; BJ 75mg/kg,0.9922 and 0.9735 and 1.1881 and 1.5389 and 0.7221 and 0.7355
same,Quantification of immunohistochemical staining,[6]; BJ 150mg/kg,0.2082 and 0.4937 and 0.5395 and 0.2725 and 0.374 and 0.2768
same,Proportion of F4/80-positive macrophages around adipocytes,[6],lower than that of the vehicle-treated db/db mice
same,p-TBK1,[7]; Tnfa + 3um BJ,0.5551 and 0.4207 and 0.3485
same,p-TBK1,[7]; Tnfa + 10um BJ,0.5649 and 0.4409 and 0.466
same,"Expression of p-AMPKα, UCP1, and p-TBK1","[7]; TNF-α induced 3T3-L1 adipocytes, BJ treatment for 24 h",increased significantly
same,"UCP1 (western blotting, Figure 7k)",[7]; Tnfa + 3um,0.6944 and 0.7423 and 0.5922
same,"p-AMPKα (western blotting, Figure 7j)",[7]; Tnfa + 3um,0.6086 and 0.4894 and 0.5999
same,"UCP1 (western blotting, Figure 7k)",[7]; Tnfa + 10um,1.271 and 1.387 and 0.9844
same,"p-AMPKα (western blotting, Figure 7j)",[7]; Tnfa + 10um,0.7332 and 0.6589 and 0.63
